From patent US11136342B2, “Carbonate prodrugs and methods of using the same” (Acorda Therapeutics, Inc., priority 2008, dated 2021)
In brackets after ≈: the same amount, converted by molar mass. Read-outs that look alike come from different tables or passages of the source.

How the values were obtained:
Assay type in all cases: physicochemical
[1] = Prodrug stability in propylene glycol-d8 at low temperature by 1H NMR
Protocol: Two samples of (4-acetamidophenyl carbonic) phosphoric anhydride (20 mg each) were dissolved in propylene glycol-d8 (600 mg) and the samples were stored at 4° C. and −20° C.

[2] = Solubility of the prodrug in water, glycerol and propylene glycol; settings: for solubility: thermodynamic from solid
Protocol: Solubility of the prodrug (4-acetamidophenyl carbonic) phosphoric anhydride was determined in water, glycerol, and propylene glycol. 10 mg of (4-acetamidophenyl carbonic) phosphoric anhydride was weighed into a vial, small amounts of solvent were added and the mixture was sonicated until a solution formed.

[3] = Prodrug stability in D2O by proton NMR; settings: for Remaining Prodrug: water (D2O), room temperature
Protocol: (4-acetamidophenyl carbonic) phosphoric (29.5 mg) was dissolved in D2O (0.7 mL) and monitored by proton NMR.

[4] = Prodrug stability in propylene glycol-d8 at room temperature by 1H and 31P NMR
Protocol: (4-acetamidophenyl carbonic) phosphoric anhydride (20.4 mg) was dissolved in 600 mg propylene glycol-d8 and ^1H and ^31P NMR spectra were recorded at room temperature. In addition to (4-acetamidophenyl carbonic) phosphoric anhydride (d−766 ppm), there were peaks at d+334, 265 (likely H3PO4) and +203 ppm.

CC(=O)Nc1ccc(OC(=O)OP(=O)(O)O)cc1 [(4-acetamidophenyl carbonic) phosphoric anhydride]
Effect of low temperature storage on stability ([1]; propylene glycol-d8, 4° C. and −20° C.): low temperature storage improved the stability | Acetaminophen Formation ([1]; propylene glycol-d8, 4° C., 0.17 h): 7.1% | Acetaminophen Formation ([1]; propylene glycol-d8, 4° C., 19.3 h): 37.8% | Acetaminophen Formation ([1]; propylene glycol-d8, 4° C., 44.5 h): 58.5% | Acetaminophen Formation ([1]; propylene glycol-d8, 4° C., 68.7 h): 71.5% | Acetaminophen Formation ([1]; propylene glycol-d8, 4° C., 94.0 h): 79.3% | Acetaminophen Formation ([1]; propylene glycol-d8, 4° C., 116 h): 83.1% | Acetaminophen Formation ([1]; propylene glycol-d8, 4° C., 140 h): 84.6% | Acetaminophen Formation ([1]; propylene glycol-d8, −20° C., 0.17 h): 10.1% | Acetaminophen Formation ([1]; propylene glycol-d8, −20° C., 19.3 h): 15.0% | Acetaminophen Formation ([1]; propylene glycol-d8, −20° C., 44.5 h): 20.5% | Acetaminophen Formation ([1]; propylene glycol-d8, −20° C., 68.7 h): 25.0% | Acetaminophen Formation ([1]; propylene glycol-d8, −20° C., 94.0 h): 29.0% | Acetaminophen Formation ([1]; propylene glycol-d8, −20° C., 116 h): 32.2% | Acetaminophen Formation ([1]; propylene glycol-d8, −20° C., 140 h): 36.2% | solubility ([2]; organic solvent or mixture, glycerol d=1.25 g/mL, read-out: Solubility in glycerol): 20.6 mg/mL (≈ 74.9 mM) | solubility ([2]; organic solvent or mixture, propylene glycol d=1.036 g/mL, read-out: Solubility in propylene glycol): 154 mg/mL (≈ 560 mM) | solubility ([2]; water, room temperature, read-out: Solubility in water): 152 mg/mL (≈ 552 mM) | Water solubility relative to acetaminophen ([2]; water, room temperature): more than 10 times | half-life at 42.1 mg/mL ([3]; D2O, 29.5 mg in 0.7 mL): ~1.5 h | Remaining Prodrug ([3]; 3 min): 94.4% | Remaining Prodrug ([3]; 9 min): 90.3% | Remaining Prodrug ([3]; 14 min): 86.4% | Remaining Prodrug ([3]; 29 min): 75.7% | Remaining Prodrug ([3]; 39 min): 70.9% | Remaining Prodrug ([3]; 49 min): 65.6% | Remaining Prodrug ([3]; 60 min): 61.0% | Remaining Prodrug ([3]; 75 min): 55.5% | Remaining Prodrug ([3]; 90 min): 50.6% | Remaining Prodrug ([3]; 105 min): 46.0% | Remaining Prodrug ([3]; 120 min): 41.7% | Remaining Prodrug ([3]; 146 min): 36.7% | Remaining Prodrug ([3]; 188 min): 29.3% | Remaining Prodrug ([3]; 270 min): 20.2% | Remaining Prodrug ([3]; 375 min): 13.9% | Remaining Prodrug ([3]; 420 min): 11.7% | Remaining Prodrug ([3]; 495 min): 8.4% | Remaining Prodrug ([3]; 840 min): 3.0% | Remaining Prodrug ([3]; 1410 min): 1.4% | half-life at 34 mg/g solvent [4]: ~6.3 h | Remaining Prodrug 1H NMR ([4]; 10 min): 94.03% | Remaining Prodrug 31P NMR ([4]; 10 min): 96.7% | Remaining Prodrug 1H NMR ([4]; 18 min): 92.64% | Remaining Prodrug 31P NMR ([4]; 18 min): 94.5% | Remaining Prodrug 1H NMR ([4]; 28 min): 90.79% | Remaining Prodrug 31P NMR ([4]; 28 min): 92.1% | Remaining Prodrug 1H NMR ([4]; 41 min): 88.57% | Remaining Prodrug 31P NMR ([4]; 41 min): 89.9% | Remaining Prodrug 1H NMR ([4]; 51 min): 86.84% | Remaining Prodrug 31P NMR ([4]; 51 min): 88.4% | Remaining Prodrug 1H NMR ([4]; 61 min): 85.36% | Remaining Prodrug 31P NMR ([4]; 61 min): 86.4% | Remaining Prodrug 1H NMR ([4]; 70 min): 83.93% | Remaining Prodrug 31P NMR ([4]; 70 min): 85.0% | Remaining Prodrug 1H NMR ([4]; 120 min): 74.63% | Remaining Prodrug 31P NMR ([4]; 120 min): 77.6% | Remaining Prodrug 1H NMR ([4]; 169 min): 68.80% | Remaining Prodrug 31P NMR ([4]; 169 min): 71.7% | Remaining Prodrug 1H NMR ([4]; 228 min): 62.97% | Remaining Prodrug 31P NMR ([4]; 228 min): 64.9% | Remaining Prodrug 1H NMR ([4]; 297 min): 56.82% | Remaining Prodrug 31P NMR ([4]; 297 min): 57.4% | Remaining Prodrug 1H NMR ([4]; 345 min): 52.10% | Remaining Prodrug 31P NMR ([4]; 345 min): 52.8% | Remaining Prodrug 1H NMR ([4]; 380 min): 49.13% | Remaining Prodrug 31P NMR ([4]; 380 min): 49.6% | Remaining Prodrug 1H NMR ([4]; 425 min): 46.33% | Remaining Prodrug 31P NMR ([4]; 425 min): 46.6% | Remaining Prodrug 1H NMR ([4]; 446 min): 45.67% | Remaining Prodrug 31P NMR ([4]; 446 min): 44.0% | Remaining Prodrug 1H NMR ([4]; 1269 min): 19.61% | Remaining Prodrug 31P NMR ([4]; 1269 min): 17.1%
